# Test results: US9671405B2, “Identifying taxane sensitivity in prostate cancer patients” (Cornell University, priority 2012, dated 2017)
# How the values were obtained:
# Format in all cases: cell-based, human
# ARv5,6,7 = assay: Nuclear localization of GFP-tagged ARv5,6,7 in M12 cells, confocal microscopy; conditions: 10 nM R1881 2 h
# Source text: (§1) Cells were then fixed, immunostained for tubulin, and imaged for GFP-AR and tubulin by confocal microscopy. Androgen receptor is shown as lighter staining (green in the original), while tubulin staining is darker but visible as lighter areas in the images (red in the original). Representative, high-magnification images from each condition are shown. […] Scale bar: 10 μm. FIG. 9D is a bar graph depicting the ratio of cells with nuclear androgen receptor over those with cytoplasmic androgen receptor for each condition. […] Relative mRNA expression of TMPRSS2 and FKBP51 was assessed by qPCR. Values were corrected to GAPDH and normalized to untreated M12 cells expressing control lentivirus (M12 lenti). […] Androgen receptor protein expression was detected by staining with anti-androgen receptor or anti-ARN-21 antibodies. […] Cells were then fixed, immunostained for tubulin, and imaged for GFP-AR and tubulin by confocal microscopy. […]
# (§2) In addition, M12 cells stably expressing GFP-tagged AR-wt, AR or variants were generated in Or Giannakakou's laboratory. GFP^+ cells from all three androgen receptor cell lines were sorted using fluorescence activated cell sorting (FACS) on a BD FACSAria II cell sorter (BD Biosciences, Franklin Lakes, N.J., USA) and subsequently expanded in media containing G418 ([…]). […]
# ARv7 = assay: Nuclear localization of GFP-tagged ARv7 in M12 cells, confocal microscopy; conditions: 10 nM R1881 2 hr
# Source text: as §1, §2
# [1] = test system: GEDI-captured circulating tumor cells from castration-resistant prostate cancer patients; assay: On-chip ex-vivo taxane treatment of GEDI-captured patient circulating tumor cells, microtubule bundling as drug-target engagement
# Source text: (§3) One ml of spiked blood was then passed through each of three GEDI devices. […] Following drug treatment, cells were fixed and processed for immunofluorescence staining using antibodies against tubulin and CD45. DAPI was used as a DNA counterstain to evaluate nuclear integrity. […] Following drug treatment, the PSMA-captured cells were fixed and processed for immunofluorescence staining as in FIG. 5A with the addition of cytokeratin-18 as an alternative epithelial marker.
# For ex-vivo drug treatment experiments, the blood sample from each patient was divided and 1 ml was flown to each of three GEDI devices simultaneously. […] At the end of treatment, the GEDI-captured cells were fixed with PHEMO buffer and processed for multiplex confocal microscopy following immunostaining with different cell surface and cytoplasmic antibodies as indicated. […] The percent of circulating tumor cells with evidence of microtubule bundling was calculated. […] In addition, DAPI counterstain was used to assess the presence of mitotic or apoptotic nuclei following drug treatment.
# The GEDI-captured circulating tumor cells were tested in situ (i.e., while in the GEDI device) to evaluate their chemosensitivity to taxanes, and predict a patient's clinical response to therapy. […] Microtubule bundling is the first event induced by taxane treatment, resulting in downstream mitotic arrest and apoptotic cell death, and is therefore an appropriate marker of efficient taxane drug-target engagement.
# leucocytes = assay: On-chip ex-vivo taxane treatment, microtubule bundling in leucocytes present on the chip; conditions: FIG. 5F patient (patient 4), 50 nM paclitaxel ex-vivo on-chip
# Source text: as §3, with “FIG. 5A-5F illustrates on-chip assessment of effective drug-target engagement in viable GEDI-captured circulating tumor cells, and that tubulin responses to taxane treatment can be assessed in GEDI-captured cells. […] One” for “One”, “marker. […]” for “marker.”
# For ex-vivo drug treatment experiments, the blood sample from each patient was divided and 1 ml was flown to each of three GEDI devices simultaneously. […] All circulating tumor cells (PSMA^+/CD45−/DAPI^+) were assessed for the presence of microtubule bundles as evidence of effective drug-target engagement. The percent of circulating tumor cells with evidence of microtubule bundling was calculated. In all samples analyzed, bundling was clearly apparent by the distinct shape, width, orientation and increased fluorescence intensity of microtubule bundles as compared with microtubules from untreated cells. […]
SMILES,"nuclear accumulation of ARv5,6,7 induced by R1881 (ARv5,6,7)",nuclear accumulation of ARv7 induced by R1881 (ARv7),"microtubule bundling of circulating tumor cells ([1]; patient 2, 100 nM or 1 uM paclitaxel ex-vivo on-chip)","response of circulating tumor cells to drug treatment ([1]; patient 4, 50 nM paclitaxel ex-vivo on-chip)","apoptotic nuclei in circulating tumor cells ([1]; patient docetaxel progressor on cabazitaxel, ex vivo 24 hr)","effect on microtubule cytoskeleton of captured circulating tumor cells ([1]; patient of FIG. 5B (docetaxel progressor), 100 nM ex vivo, 24 hr)","mitotic arrest of captured circulating tumor cells ([1]; same patient as FIG. 5B (FIG. 5C), ex vivo 24 hr)",leucocytes present on the chip showing microtubule bundling (leucocytes) [%]
"C[C@]1(O)CC[C@H]2[C@@H]3CCC4=CC(=O)CCC4=C3C=C[C@@]21C [R1881, Methyltrienolone]",did not induce any further nuclear accumulation,does not increase nuclear accumulation,,,,,,
CC(=O)O[C@H]1C(=O)[C@@]2(C)[C@H]([C@H](OC(=O)c3ccccc3)[C@]3(O)C[C@H](OC(=O)[C@H](O)[C@@H](NC(=O)c4ccccc4)c4ccccc4)C(C)=C1C3(C)C)[C@]1(OC(C)=O)CO[C@@H]1C[C@@H]2O [paclitaxel],,,display microtubule bundling,heterogeneous response,exhibited apoptotic nuclei,clear evidence of microtubule bundling,signs of aberrant mitotic arrest,~100
